# Laboratory results taken from ChEMBL document CHEMBL1201862, “PubChem BioAssay data set” (2004).
# The source made the active and inactive calls.
# How the values were obtained:
# cells = type: functional
# [1] = target: Glyceraldehyde-3-phosphate dehydrogenase (Homo sapiens, UniProt P04406)
# H9c2 = assay: cells; type: functional, cell-based; conditions: Rattus norvegicus, H9c2, Myocardium;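 note: confirmatory concentration-response retest of ultra-high-throughput screening hits for modulation of myocardial damage; cell death induced by hydrogen peroxide oxidative stress; compound pretreatment for 60 min then peroxide exposure for 2 h; potency is for protecting the cells against peroxide damage rather than for killing them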
# Leucine aminopeptidase = target: T1, Leucine aminopeptidase (Plasmodium falciparum 3D7, UniProt Q8IL11); assay: P. falciparum M17LAP inhibitors, primary screen, biochemical, fluorogenic H-Leu-NHMec substrate, 1536-well (AID 1619); type: functional
# T1 sequence (Q8IL11 whole entry): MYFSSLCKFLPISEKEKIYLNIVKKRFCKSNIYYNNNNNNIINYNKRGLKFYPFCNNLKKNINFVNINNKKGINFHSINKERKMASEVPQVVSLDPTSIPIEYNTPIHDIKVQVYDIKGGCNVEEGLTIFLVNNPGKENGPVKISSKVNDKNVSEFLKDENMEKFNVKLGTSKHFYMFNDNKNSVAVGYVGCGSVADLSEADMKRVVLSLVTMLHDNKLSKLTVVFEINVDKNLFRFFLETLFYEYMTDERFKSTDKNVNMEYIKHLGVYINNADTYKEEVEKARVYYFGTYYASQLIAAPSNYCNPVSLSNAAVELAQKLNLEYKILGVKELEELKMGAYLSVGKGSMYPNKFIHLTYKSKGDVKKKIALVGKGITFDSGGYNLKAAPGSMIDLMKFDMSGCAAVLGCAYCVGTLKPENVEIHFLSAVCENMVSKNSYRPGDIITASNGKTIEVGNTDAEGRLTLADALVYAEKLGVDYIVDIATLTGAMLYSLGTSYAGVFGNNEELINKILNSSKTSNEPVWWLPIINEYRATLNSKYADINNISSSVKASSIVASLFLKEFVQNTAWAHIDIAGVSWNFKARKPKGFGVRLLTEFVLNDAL
# [2] = target: Luciferin 4-monooxygenase (Photinus pyralis, UniProt P08659); assay: inhibition of purified Photinus pyralis luciferase – biochemical, luminescence, dose response (AID 1891)
# Chain of Luciferin 4-monooxygenase (P08659 whole entry): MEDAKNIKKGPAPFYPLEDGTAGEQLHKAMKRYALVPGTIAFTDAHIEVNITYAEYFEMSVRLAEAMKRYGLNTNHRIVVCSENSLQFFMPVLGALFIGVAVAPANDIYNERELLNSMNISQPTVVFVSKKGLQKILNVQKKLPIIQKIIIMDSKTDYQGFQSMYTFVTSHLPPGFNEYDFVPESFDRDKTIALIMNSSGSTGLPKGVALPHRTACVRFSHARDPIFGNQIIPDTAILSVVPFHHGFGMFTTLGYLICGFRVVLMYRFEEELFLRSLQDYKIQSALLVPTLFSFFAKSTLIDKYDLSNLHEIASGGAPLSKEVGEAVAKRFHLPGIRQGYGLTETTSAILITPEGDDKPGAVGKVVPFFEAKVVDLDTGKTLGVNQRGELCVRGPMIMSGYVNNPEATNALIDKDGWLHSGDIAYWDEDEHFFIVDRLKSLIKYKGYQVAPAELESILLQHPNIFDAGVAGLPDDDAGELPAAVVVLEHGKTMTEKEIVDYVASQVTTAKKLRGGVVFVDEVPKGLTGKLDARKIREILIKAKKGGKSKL
# [3] = Luminescence Cell-Based Dose Confirmation HTS to Identify Inhibitors of Platelet Dense Granule Release. [Related pubchem assays: 1663 (Primary HTS), 1678 (Summary of Project)]; type: functional
# Large T antigen = Large T antigen (Simian virus 40, UniProt P03070); type: functional, Betapolyomavirus macacae;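 note: Confirmatory-stage PubChem screen for compounds that inhibit SV40 T antigen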
# Chain of Large T antigen (P03070 whole entry): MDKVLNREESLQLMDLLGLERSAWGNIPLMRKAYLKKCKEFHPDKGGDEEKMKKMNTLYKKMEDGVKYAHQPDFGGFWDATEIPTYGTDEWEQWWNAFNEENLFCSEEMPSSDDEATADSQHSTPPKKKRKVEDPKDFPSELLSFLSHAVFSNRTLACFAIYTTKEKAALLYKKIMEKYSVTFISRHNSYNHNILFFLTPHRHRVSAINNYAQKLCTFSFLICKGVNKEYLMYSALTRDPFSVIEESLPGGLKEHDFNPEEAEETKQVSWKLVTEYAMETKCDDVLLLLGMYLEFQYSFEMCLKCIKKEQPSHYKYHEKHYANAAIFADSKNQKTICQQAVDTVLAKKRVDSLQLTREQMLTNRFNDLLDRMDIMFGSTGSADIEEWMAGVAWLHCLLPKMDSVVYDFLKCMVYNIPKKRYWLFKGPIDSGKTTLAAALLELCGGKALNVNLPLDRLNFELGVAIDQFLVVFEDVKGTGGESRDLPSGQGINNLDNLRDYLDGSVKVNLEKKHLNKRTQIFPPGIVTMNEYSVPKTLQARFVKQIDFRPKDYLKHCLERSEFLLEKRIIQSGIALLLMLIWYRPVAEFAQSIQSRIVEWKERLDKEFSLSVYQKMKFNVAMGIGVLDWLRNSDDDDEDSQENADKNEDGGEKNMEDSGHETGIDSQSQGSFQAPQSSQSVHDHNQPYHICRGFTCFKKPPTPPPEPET
# H4 = assay: Luminescence Cell-Based Dose Response HTS to Identify Activators of 5'UTR Stem-Loop Driven Prion Protein mRNA Translation in H4 Neuroglioblastoma Cells. [Related pubchem assays: 1829 (Project Summary), 1814 (Primary HTS)]; type: functional; conditions: Homo sapiens
# [4] = Luminescence Cell-Based Dose Response HTS to Identify Activators of Luciferase Translation or Activity in H4 […] Cells. [Related pubchem assays: 1829 (Project Summary), 1814 (Primary HTS)]; type: functional
# [5] = Luminescence Cell-Based Dose Confirmation HTS to Identify Activators of 5'UTR Stem-Loop Driven Alpha-Synuclein mRNA Translation in H4 Neuroglioblastoma Cells. [Related pubchem assays: 1829 (Project Summary), 1814 (Primary HTS)]; type: functional
# Estrogen receptor = target: T2, Estrogen receptor (Homo sapiens, UniProt P03372);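 note: potency for inhibiting coactivator peptide recruitment to the receptor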
# T2 sequence (P03372 whole entry): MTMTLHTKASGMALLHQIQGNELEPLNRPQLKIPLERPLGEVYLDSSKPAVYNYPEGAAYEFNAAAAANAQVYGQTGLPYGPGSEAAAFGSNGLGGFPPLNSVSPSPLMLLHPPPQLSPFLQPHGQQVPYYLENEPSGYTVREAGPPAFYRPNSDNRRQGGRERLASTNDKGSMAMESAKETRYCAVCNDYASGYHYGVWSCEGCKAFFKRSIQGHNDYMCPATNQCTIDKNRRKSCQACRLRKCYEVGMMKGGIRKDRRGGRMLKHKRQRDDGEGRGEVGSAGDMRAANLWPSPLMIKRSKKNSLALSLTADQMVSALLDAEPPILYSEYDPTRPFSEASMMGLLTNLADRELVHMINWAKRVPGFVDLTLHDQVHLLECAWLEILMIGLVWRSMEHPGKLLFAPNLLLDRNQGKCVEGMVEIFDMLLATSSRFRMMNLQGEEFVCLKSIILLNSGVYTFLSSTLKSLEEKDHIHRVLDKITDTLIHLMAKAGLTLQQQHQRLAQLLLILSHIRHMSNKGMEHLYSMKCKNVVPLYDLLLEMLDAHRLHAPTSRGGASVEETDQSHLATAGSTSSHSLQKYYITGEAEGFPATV
# BJ [6] = assay: cells; type: functional, cell-based; conditions: Homo sapiens
# BJ [7] = assay: BJ-TERT fibroblast viability loss – cell-based, RAS-independent, luminescence, dose response (AID 1933); type: functional; conditions: Homo sapiens
# [8] = DRD fibroblast viability loss – cell-based, non-viral oncogenic, luminescence, dose response (AID 1934); type: functional; conditions: Homo sapiens
# BJ [9] = assay: BJ-TERT-LT-ST fibroblast viability loss – cell-based, RAS-independent, luminescence, dose response (AID 1935); type: functional; conditions: Homo sapiens;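 note: BJ fibroblasts immortalized with TERT plus LT and ST oncogenes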
# Vero = assay: cells; type: functional; conditions: Chlorocebus sabaeus
# Fatty acid synthase [10] = target: T3, Fatty acid synthase (Homo sapiens, UniProt P49327); assay: inhibition of human FAS-TE enzyme activity – biochemical, kinetic fluorescence intensity, dose response (AID 624326); type: functional;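 note: rate of fluorescence rise from hydrolysis of a fluorogenic O-methyl fluorescein ester substrate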
# T3 sequence (P49327 whole entry): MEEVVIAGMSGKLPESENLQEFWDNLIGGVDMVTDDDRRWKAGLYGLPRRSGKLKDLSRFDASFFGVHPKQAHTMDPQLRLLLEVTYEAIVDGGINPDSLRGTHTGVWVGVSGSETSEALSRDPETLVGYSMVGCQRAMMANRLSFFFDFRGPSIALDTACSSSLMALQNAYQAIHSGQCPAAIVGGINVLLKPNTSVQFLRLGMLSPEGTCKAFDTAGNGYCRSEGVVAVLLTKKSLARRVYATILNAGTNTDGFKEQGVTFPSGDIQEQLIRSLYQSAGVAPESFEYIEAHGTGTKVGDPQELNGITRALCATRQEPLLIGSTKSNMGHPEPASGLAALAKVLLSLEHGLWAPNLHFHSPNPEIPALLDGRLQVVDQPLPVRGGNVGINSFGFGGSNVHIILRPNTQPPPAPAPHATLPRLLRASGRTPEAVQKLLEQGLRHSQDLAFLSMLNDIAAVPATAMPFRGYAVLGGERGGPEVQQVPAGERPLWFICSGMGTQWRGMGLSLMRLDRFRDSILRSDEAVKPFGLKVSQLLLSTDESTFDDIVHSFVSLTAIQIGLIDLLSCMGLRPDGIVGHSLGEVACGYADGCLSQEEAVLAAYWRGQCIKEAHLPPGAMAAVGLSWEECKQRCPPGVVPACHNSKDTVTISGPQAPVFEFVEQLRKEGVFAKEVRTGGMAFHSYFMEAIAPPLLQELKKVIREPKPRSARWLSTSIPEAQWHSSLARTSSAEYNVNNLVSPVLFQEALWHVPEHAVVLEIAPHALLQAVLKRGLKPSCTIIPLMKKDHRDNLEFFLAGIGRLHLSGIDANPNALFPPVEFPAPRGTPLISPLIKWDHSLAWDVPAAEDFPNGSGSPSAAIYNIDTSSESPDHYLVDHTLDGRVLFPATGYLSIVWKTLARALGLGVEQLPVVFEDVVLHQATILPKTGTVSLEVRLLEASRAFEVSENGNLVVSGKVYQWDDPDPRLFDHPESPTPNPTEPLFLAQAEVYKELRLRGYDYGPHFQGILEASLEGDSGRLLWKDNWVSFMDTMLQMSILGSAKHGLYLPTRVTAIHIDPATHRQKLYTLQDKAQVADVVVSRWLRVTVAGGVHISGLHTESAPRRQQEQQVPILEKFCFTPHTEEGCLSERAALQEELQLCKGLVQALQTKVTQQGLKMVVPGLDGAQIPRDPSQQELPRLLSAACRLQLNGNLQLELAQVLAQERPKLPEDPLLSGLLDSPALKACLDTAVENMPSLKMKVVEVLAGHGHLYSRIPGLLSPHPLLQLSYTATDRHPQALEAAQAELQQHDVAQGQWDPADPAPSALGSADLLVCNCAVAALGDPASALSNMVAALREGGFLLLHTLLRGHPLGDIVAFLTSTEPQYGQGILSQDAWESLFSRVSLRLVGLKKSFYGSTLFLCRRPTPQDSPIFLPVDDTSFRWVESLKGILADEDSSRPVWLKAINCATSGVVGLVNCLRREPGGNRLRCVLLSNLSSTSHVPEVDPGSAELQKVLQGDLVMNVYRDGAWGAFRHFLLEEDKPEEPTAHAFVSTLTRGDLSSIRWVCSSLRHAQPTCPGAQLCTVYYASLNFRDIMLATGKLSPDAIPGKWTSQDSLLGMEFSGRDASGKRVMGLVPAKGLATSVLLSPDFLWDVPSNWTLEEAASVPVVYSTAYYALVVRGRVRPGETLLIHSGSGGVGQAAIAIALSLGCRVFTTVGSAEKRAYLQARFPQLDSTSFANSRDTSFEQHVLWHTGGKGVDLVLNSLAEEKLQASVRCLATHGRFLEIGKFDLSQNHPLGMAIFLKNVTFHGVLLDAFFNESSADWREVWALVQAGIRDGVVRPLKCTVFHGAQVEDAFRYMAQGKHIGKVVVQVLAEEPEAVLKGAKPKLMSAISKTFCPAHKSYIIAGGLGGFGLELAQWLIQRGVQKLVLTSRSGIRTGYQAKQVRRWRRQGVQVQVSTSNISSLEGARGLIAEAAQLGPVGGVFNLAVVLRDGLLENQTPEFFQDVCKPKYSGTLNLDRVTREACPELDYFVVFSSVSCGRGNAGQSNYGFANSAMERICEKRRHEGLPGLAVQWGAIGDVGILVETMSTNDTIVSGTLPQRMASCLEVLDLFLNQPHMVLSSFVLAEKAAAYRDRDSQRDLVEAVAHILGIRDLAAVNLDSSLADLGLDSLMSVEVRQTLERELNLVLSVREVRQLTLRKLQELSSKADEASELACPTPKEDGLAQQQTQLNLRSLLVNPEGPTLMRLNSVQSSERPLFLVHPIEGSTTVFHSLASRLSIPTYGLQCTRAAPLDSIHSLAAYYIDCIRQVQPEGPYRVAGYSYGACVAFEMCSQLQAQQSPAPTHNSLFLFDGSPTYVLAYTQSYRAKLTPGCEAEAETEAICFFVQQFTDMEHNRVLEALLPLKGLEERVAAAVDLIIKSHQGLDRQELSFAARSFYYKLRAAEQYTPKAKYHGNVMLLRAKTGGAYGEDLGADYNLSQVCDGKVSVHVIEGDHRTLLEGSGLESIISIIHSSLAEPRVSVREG
# Fatty acid synthase [11] = target: T3, Fatty acid synthase; assay: inhibition of human FAS-TE enzyme activity – biochemical, endpoint fluorescence intensity, uHTS hits, dose response (AID 624327); type: functional;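 note: fluorescence from hydrolysis of an O-methyl fluorescein acyl ester substrate by the enzyme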
# [12] = intracellular Trypanosoma cruzi inhibitors in host cells – cell-based, plate reader, cherry-pick samples, set 3, dose response (AID 651818); type: functional;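 note: compounds incubated with infected cells for about four days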
# Paired box protein Pax-8 = Paired box protein Pax-8 (Homo sapiens, UniProt Q06710); assay: PAX8 transcriptional activity inhibition in RMG-I – RMG-I cells, luciferase, cherry-pick, dose response (AID 687027); type: functional, cell-based;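 note: luciferase reporter driven by Pax8 target thyroperoxidase promoter measured by SteadyGlo luminescence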
# Chain of Paired box protein Pax-8 (Q06710 whole entry): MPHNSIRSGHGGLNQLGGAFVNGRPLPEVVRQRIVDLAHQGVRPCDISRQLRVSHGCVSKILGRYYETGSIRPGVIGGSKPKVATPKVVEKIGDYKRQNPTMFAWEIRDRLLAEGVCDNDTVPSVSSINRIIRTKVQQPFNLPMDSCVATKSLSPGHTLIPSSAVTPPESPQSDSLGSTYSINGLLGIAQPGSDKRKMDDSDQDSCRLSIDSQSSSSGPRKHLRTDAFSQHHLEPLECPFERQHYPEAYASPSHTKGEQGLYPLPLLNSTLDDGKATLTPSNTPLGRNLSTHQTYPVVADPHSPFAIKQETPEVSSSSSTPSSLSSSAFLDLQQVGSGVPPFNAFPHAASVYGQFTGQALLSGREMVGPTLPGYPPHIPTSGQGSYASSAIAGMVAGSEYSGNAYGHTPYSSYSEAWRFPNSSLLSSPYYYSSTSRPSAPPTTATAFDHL
# [13] = P. falciparum Dd2 growth inhibitors, dose response, SYBR Green, cherry-picked samples (AID 1159567); type: functional, cell-based
# [14] = target: T4, Rac GTPase-activating protein 1 (Homo sapiens, UniProt Q9H0H5); assay: blockers of MgcRacGAP-driven Rac1 GTP hydrolysis – biochemical, ADP Hunter fluorescence, primary and confirmatory, confirmation (AID 624330); type: functional
# T4 sequence (Q9H0H5 whole entry): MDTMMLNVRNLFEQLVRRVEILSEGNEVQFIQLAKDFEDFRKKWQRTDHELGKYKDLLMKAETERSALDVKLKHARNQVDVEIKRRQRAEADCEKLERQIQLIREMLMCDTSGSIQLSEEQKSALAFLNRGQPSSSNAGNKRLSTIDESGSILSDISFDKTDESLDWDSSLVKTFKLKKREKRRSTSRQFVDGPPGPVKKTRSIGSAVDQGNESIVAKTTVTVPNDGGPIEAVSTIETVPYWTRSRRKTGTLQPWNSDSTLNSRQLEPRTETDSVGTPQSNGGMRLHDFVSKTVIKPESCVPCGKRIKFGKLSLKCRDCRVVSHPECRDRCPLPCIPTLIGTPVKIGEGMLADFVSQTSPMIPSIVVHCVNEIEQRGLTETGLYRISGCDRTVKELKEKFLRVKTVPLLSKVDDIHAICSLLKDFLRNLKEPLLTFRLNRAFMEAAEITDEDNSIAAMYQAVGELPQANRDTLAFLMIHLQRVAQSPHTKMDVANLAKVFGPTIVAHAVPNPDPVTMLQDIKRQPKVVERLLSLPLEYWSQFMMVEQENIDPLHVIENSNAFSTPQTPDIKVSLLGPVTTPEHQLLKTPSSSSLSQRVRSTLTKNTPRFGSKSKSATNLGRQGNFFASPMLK
# Chain of Glyceraldehyde-3-phosphate dehydrogenase (P04406 whole entry): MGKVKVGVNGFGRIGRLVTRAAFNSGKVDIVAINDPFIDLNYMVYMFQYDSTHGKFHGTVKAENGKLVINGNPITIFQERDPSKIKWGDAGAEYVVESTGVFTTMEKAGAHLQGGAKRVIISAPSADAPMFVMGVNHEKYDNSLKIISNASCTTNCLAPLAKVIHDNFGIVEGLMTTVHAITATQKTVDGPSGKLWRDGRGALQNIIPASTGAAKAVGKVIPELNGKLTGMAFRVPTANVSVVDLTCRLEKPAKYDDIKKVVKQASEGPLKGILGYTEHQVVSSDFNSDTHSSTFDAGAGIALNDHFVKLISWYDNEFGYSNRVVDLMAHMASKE
smiles,measurement,setting,value
COc1ccc(C(=O)COC(=O)c2ccc(Cl)nc2)c(OC)c1,IC50,cells,13.2 µM (active)
COc1cccc(N2C(=O)C(Cl)=C(N3CCN(Cc4ccc5c(c4)OCO5)CC3)C2=O)c1,IC50,[1],> 50 µM (inconclusive)
O=C1c2ccccc2C(=O)N1CCCCSc1nc2ccccc2c(=O)n1CCCN1CCOCC1,IC50,H9c2,10.1 µM (active)
CCOC(=O)c1cccc(NC(=O)CN2C(=O)C3C4C=CC(C4)C3C2=O)c1 (stereo not given),IC50,Leucine aminopeptidase,14.2 µM (active)
O=C(CN(CCN1CCOCC1)C(=O)Cn1nnc(-c2ccc(F)cc2)n1)NC1CCCCC1,EC50,[2],> 112 µM (not active)
same,EC50,[3],> 112 µM (not active)
Cc1cc(N2CCCCC2)ccc1C=C1C(=O)N(C)C(=S)N(C)C1=O,IC50,Leucine aminopeptidase,40.9 µM (active)
O=C(Nc1ccccc1C(=O)Nc1ccccc1C(=O)NCc1ccco1)c1ccco1,IC50,H9c2,> 79 µM (inactive)
CN1CCc2c(sc3nc(SCC(=O)N4CCCCC4)n(-c4ccccc4)c(=O)c23)C1,EC50,[2],> 112 µM (not active)
same,EC50,[3],12.9 µM (active)
CN(C)c1ccc(NC(=O)C(=O)C2C(=O)Nc3ccccc32)cc1 (stereo not given),IC50,Large T antigen,25.9 µM (active)
O=C1C(C2=NC(C(=O)O)C3C(=O)N(c4ccccc4)C(=O)C23)=C(O)c2ccccc21 (stereo not given),IC50,Leucine aminopeptidase,68 µM (active)
CCOC(=O)c1c(C)oc2ccc(NS(=O)(=O)c3ccc(C(=O)O)cc3)cc12,IC50,Leucine aminopeptidase,43.9 µM (active)
COc1cc(OC)c(C2CC(=O)N3CN(c4ccc(C)cc4)CSC3=C2C#N)cc1OC (stereo not given),IC50,Large T antigen,43.4 µM (active)
O=C(Nc1cccc(C(=O)O)c1)/C(=C\c1ccc2c(c1)OCO2)NC(=O)c1ccc(Br)o1,IC50,Leucine aminopeptidase,65 µM (active)
COc1ccc(OCC(=O)Nc2ccc3c(c2)nc(CN2CCCC2)n3C)cc1,EC50,[2],> 112 µM (not active)
same,EC50,[3],> 112 µM (not active)
O=C(CCCCCn1nnc2ccccc2c1=O)N[C@H](C(=O)O)c1ccccc1,EC50,[2],> 112 µM (not active)
same,EC50,[3],> 112 µM (not active)
N#CCCn1c(SCC(=O)c2c[nH]c3ccccc23)nc2ccccc21,IC50,H9c2,> 79 µM (inactive)
O=C(COC(=O)CCC(=O)c1ccc(F)cc1)Nc1cccc(S(=O)(=O)N2CCCC2)c1,EC50,[2],> 112 µM (not active)
same,EC50,[3],15.5 µM (active)
COc1cc(/C=C2/C(=N)N3C=CSC3=NC2=O)ccc1OCCCOc1ccccc1C,EC50,H4,70.8 µM (active)
same,EC50,[4],58.3 µM (active)
same,EC50,[5],5.59 µM (active)
same,IC50,Estrogen receptor,> 50 µM (not active)
COc1ccc(C(=O)c2ccc(N3CCOCC3)c([N+](=O)[O-])c2)cc1,EC50,BJ [6],> 150 µM (not active)
same,EC50,BJ [7],> 150 µM (not active)
same,EC50,[8],> 150 µM (not active)
same,EC50,BJ [9],> 150 µM (not active)
COc1cc(C(=O)Nc2nc(C)c(Cc3ccc4c(c3)OCO4)s2)cc(OC)c1OC,EC50,BJ [6],133 µM (active)
same,EC50,BJ [7],2.49 µM (active)
same,EC50,[8],2.04 µM (active)
same,EC50,BJ [9],1.68 µM (active)
CCc1nnc(NC(=O)C(C)Sc2ccccc2)s1 (stereo not given),IC50,Leucine aminopeptidase,3.57 µM (active)
Cc1cc(C)nc(NN=CC2=C(N3CCOCC3)/C(=C/c3ccc(Cl)cc3)CC2)n1,CC50,Vero,> 25 µM (active)
CCOc1ccc(N(CC(=O)N/N=C/c2ccccn2)S(=O)(=O)c2ccc(Cl)cc2)cc1,IC50,Fatty acid synthase [10],5.79 µM (active)
same,IC50,H9c2,> 79 µM (inactive)
same,IC50,Fatty acid synthase [11],10.6 µM (active)
COc1ccc(NC(=O)Nc2ccc3c(c2)CC(=O)N([C@H](C)CO)C[C@@H](C)[C@@H](CN(C)Cc2ccc(C(F)(F)F)cc2)O3)cc1,AC50,[12],3.52 µM (active)
C[C@@H]1CCCCO[C@H](CN(C)C(=O)Nc2ccc(C(F)(F)F)cc2)[C@@H](C)CN([C@H](C)CO)C(=O)c2cc(NC(=O)Cc3ccccc3)ccc2O1,AC50,[12],1.78 µM (active)
C[C@H]1CN([C@@H](C)CO)C(=O)Cc2cc(NC(=O)Nc3ccc(C(F)(F)F)cc3)ccc2O[C@H]1CN(C)CC1CCCCC1,AC50,[12],3.6 µM (active)
C[C@@H]1CN([C@H](C)CO)C(=O)Cc2cc(NS(=O)(=O)c3ccccc3)ccc2O[C@@H]1CN(C)S(=O)(=O)c1ccc(Cl)cc1,AC50,Paired box protein Pax-8,35.5 µM (active)
same,AC50,[12],2.08 µM (active)
C[C@@H]1CN([C@@H](C)CO)C(=O)Cc2cc(NC(=O)Nc3ccc4c(c3)OCO4)ccc2O[C@@H]1CN(C)Cc1ccc(C(=O)Nc2ccccc2N)cc1,AC50,[12],2.38 µM (active)
O=C(Nc1cccc(F)c1)N[C@@H]1CC[C@@H](CCNS(=O)(=O)c2cccc(Cl)c2)O[C@@H]1CO,AC50,[13],18.6 µM (active)
same,AC50,Paired box protein Pax-8,42.7 µM (active)
CCOc1cc(/C=N/NC(=O)c2ccccn2)ccc1OC(=O)c1cccs1,IC50,cells,26.5 µM (active)
COc1cc(/C=N/N=C(\N)c2nonc2N)ccc1O,EC50,[2],52.8 µM (active)
same,IC50,Large T antigen,12.2 µM (active)
same,IC50,[14],18.9 µM (active)
same,EC50,[3],7.47 µM (active)
COc1ccc2c3c([nH]c2c1)[C@H](CO)N(Cc1cc(F)ccc1F)CC31CCN(C(=O)C2CCC2)CC1,AC50,[13],3.36 µM (active)
C[C@H](CO)N1C[C@H](C)[C@@H](CN(C)C(=O)Nc2ccc(F)cc2)Oc2ccc(NC(=O)Nc3ccc(C(F)(F)F)cc3)cc2CC1=O,AC50,[13],3.77 µM (active)
CC(=O)N1CC2(C1)[C@@H](c1ccc(-c3cccc(F)c3)cc1)[C@@H](CO)N2CC1CCCC1,AC50,[13],6.15 µM (active)
